Data published in the supplement of paper PMC10307832.

Assays:
Experiment in all cases: relative viability (nuclei count vs DMSO), 5 days (fraction); higher = more cells survive
201T = tested on: 201T
In short: (§1)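 Medians of duplicate plates are given as relative viability. That measure is the nuclei count in treated wells divided by the count in vehicle wells. Counts were taken on 4× images of lung cancer cell lines in 1536-well plates, 5 days after pin-tool dosing the day after seeding with one drug alone or a fixed anchor-drug dose plus five library-drug doses (not always all listed) in √10 steps.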

COR-L 105 = tested on: COR-L 105
In short: as §1

COR-L23 = tested on: COR-L23
In short: as §1

EMC-BAC-2 = tested on: EMC-BAC-2
In short: as §1

HCC-15 = tested on: HCC-15
In short: as §1

HCC-366 = tested on: HCC-366
In short: as §1

LC-2-ad = tested on: LC-2-ad
In short: as §1

NCI-H1395 = tested on: NCI-H1395
In short: as §1

NCI-H1437 = tested on: NCI-H1437
In short: as §1

NCI-H1755 = tested on: NCI-H1755
In short: as §1

NCI-H1792 = tested on: NCI-H1792
In short: as §1

NCI-H1793 = tested on: NCI-H1793
In short: as §1

NCI-H1915 = tested on: NCI-H1915
In short: as §1

NCI-H2009 = tested on: NCI-H2009
In short: as §1

NCI-H2023 = tested on: NCI-H2023
In short: as §1

NCI-H2342 = tested on: NCI-H2342
In short: as §1

NCI-H2347 = tested on: NCI-H2347
In short: as §1

NCI-H23 = tested on: NCI-H23
In short: as §1

NCI-H358 = tested on: NCI-H358
In short: as §1

NCI-H650 = tested on: NCI-H650
In short: as §1

PC-14 = tested on: PC-14
In short: as §1

SK-MES-1 = tested on: SK-MES-1
In short: as §1

For Cc1csc(=NC2CCCCC2)n1/N=C/c1ccc(O)c(O)c1O [MIM1] + Nc1nc2[nH]cc(CCc3ccc(C(=O)N[C@@H](CCC(=O)O)C(=O)O)cc3)c2c(=O)[nH]1 [Pemetrexed] (partner 0.2 µM), which relative viability (201T; first compound 0.2 µM) is on record?
Its relative viability is 0.372.

What about the relative viability (201T; first compound 0.6325 µM) of the same molecule?
Its relative viability is 0.338.

And the relative viability (201T; first compound 2 µM)?
Its relative viability is 0.38.

And the relative viability (201T; first compound 6.325 µM)?
Its relative viability is 0.31.

What about the relative viability (201T; first compound 20 µM) of the same molecule?
The relative viability was 0.318.

What about the relative viability (COR-L 105; first compound 0.2 µM) of the same molecule?
Its relative viability is 1.02.

What about the relative viability (COR-L 105; first compound 0.6325 µM) of the same molecule?
Its relative viability is 1.13.

And the relative viability (COR-L 105; first compound 2 µM)?
Its relative viability is 0.882.

And the relative viability (COR-L 105; first compound 6.325 µM)?
The relative viability was 0.933.

And the relative viability (COR-L 105; first compound 20 µM)?
The relative viability was 1.04.

What about the relative viability (COR-L23; first compound 0.2 µM) of the same molecule?
The relative viability was 0.208.

And the relative viability (COR-L23; first compound 0.6325 µM)?
Its relative viability is 0.194.

What about the relative viability (COR-L23; first compound 2 µM) of the same molecule?
Its relative viability is 0.191.

And the relative viability (COR-L23; first compound 6.325 µM)?
Its relative viability is 0.19.

What about the relative viability (COR-L23; first compound 20 µM) of the same molecule?
The relative viability was 0.198.

And the relative viability (EMC-BAC-2; first compound 0.2 µM)?
Its relative viability is 0.421.

What about the relative viability (EMC-BAC-2; first compound 0.6325 µM) of the same molecule?
Its relative viability is 0.436.

What about the relative viability (EMC-BAC-2; first compound 2 µM) of the same molecule?
Its relative viability is 0.432.

What about the relative viability (EMC-BAC-2; first compound 6.325 µM) of the same molecule?
Its relative viability is 0.448.

What about the relative viability (EMC-BAC-2; first compound 20 µM) of the same molecule?
The relative viability was 0.354.

What about the relative viability (HCC-15; first compound 0.2 µM) of the same molecule?
The relative viability was 0.217.

What about the relative viability (HCC-15; first compound 0.6325 µM) of the same molecule?
Its relative viability is 0.225.

What about the relative viability (HCC-15; first compound 2 µM) of the same molecule?
Its relative viability is 0.225.

And the relative viability (HCC-15; first compound 6.325 µM)?
The relative viability was 0.239.

And the relative viability (HCC-15; first compound 20 µM)?
Its relative viability is 0.162.

What about the relative viability (HCC-366; first compound 0.2 µM) of the same molecule?
Its relative viability is 0.161.

And the relative viability (HCC-366; first compound 2 µM)?
The relative viability was 0.176.

What about the relative viability (HCC-366; first compound 6.325 µM) of the same molecule?
Its relative viability is 0.152.

What about the relative viability (HCC-366; first compound 20 µM) of the same molecule?
Its relative viability is 0.0413.

And the relative viability (LC-2-ad; first compound 0.2 µM)?
Its relative viability is 0.293.

And the relative viability (LC-2-ad; first compound 0.6325 µM)?
The relative viability was 0.292.

And the relative viability (LC-2-ad; first compound 2 µM)?
The relative viability was 0.287.

What about the relative viability (LC-2-ad; first compound 6.325 µM) of the same molecule?
The relative viability was 0.268.

What about the relative viability (LC-2-ad; first compound 20 µM) of the same molecule?
Its relative viability is 0.232.

And the relative viability (NCI-H1395; first compound 0.2 µM)?
Its relative viability is 0.848.

And the relative viability (NCI-H1395; first compound 0.6325 µM)?
Its relative viability is 0.743.

What about the relative viability (NCI-H1395; first compound 2 µM) of the same molecule?
Its relative viability is 0.8.

What about the relative viability (NCI-H1395; first compound 6.325 µM) of the same molecule?
The relative viability was 0.697.

And the relative viability (NCI-H1395; first compound 20 µM)?
Its relative viability is 0.341.

And the relative viability (NCI-H1437; first compound 0.2 µM)?
Its relative viability is 0.29.

And the relative viability (NCI-H1437; first compound 0.6325 µM)?
Its relative viability is 0.317.

And the relative viability (NCI-H1437; first compound 2 µM)?
The relative viability was 0.348.

What about the relative viability (NCI-H1437; first compound 6.325 µM) of the same molecule?
Its relative viability is 0.235.

What about the relative viability (NCI-H1437; first compound 20 µM) of the same molecule?
The relative viability was 0.154.

And the relative viability (NCI-H1755; first compound 0.2 µM)?
The relative viability was 0.377.

And the relative viability (NCI-H1755; first compound 0.6325 µM)?
The relative viability was 0.419.

What about the relative viability (NCI-H1755; first compound 2 µM) of the same molecule?
Its relative viability is 0.41.

What about the relative viability (NCI-H1755; first compound 6.325 µM) of the same molecule?
Its relative viability is 0.41.

And the relative viability (NCI-H1755; first compound 20 µM)?
Its relative viability is 0.269.

What about the relative viability (NCI-H1792; first compound 0.2 µM) of the same molecule?
The relative viability was 0.682.

And the relative viability (NCI-H1792; first compound 0.6325 µM)?
The relative viability was 0.644.

And the relative viability (NCI-H1792; first compound 2 µM)?
Its relative viability is 1.02.

What about the relative viability (NCI-H1792; first compound 6.325 µM) of the same molecule?
Its relative viability is 0.716.

And the relative viability (NCI-H1792; first compound 20 µM)?
Its relative viability is 0.685.

What about the relative viability (NCI-H1793; first compound 0.2 µM) of the same molecule?
The relative viability was 0.937.

And the relative viability (NCI-H1793; first compound 2 µM)?
The relative viability was 1.13.

And the relative viability (NCI-H1793; first compound 6.325 µM)?
Its relative viability is 0.848.

And the relative viability (NCI-H1793; first compound 20 µM)?
Its relative viability is 0.936.

What about the relative viability (NCI-H1915; first compound 0.2 µM) of the same molecule?
The relative viability was 0.501.

And the relative viability (NCI-H1915; first compound 0.6325 µM)?
Its relative viability is 0.42.

What about the relative viability (NCI-H1915; first compound 2 µM) of the same molecule?
The relative viability was 0.487.

What about the relative viability (NCI-H1915; first compound 6.325 µM) of the same molecule?
Its relative viability is 0.329.

And the relative viability (NCI-H1915; first compound 20 µM)?
The relative viability was 0.335.

What about the relative viability (NCI-H2009; first compound 0.2 µM) of the same molecule?
Its relative viability is 1.03.

And the relative viability (NCI-H2009; first compound 0.6325 µM)?
Its relative viability is 1.05.

And the relative viability (NCI-H2009; first compound 2 µM)?
Its relative viability is 1.09.

What about the relative viability (NCI-H2009; first compound 6.325 µM) of the same molecule?
The relative viability was 0.916.

What about the relative viability (NCI-H2009; first compound 20 µM) of the same molecule?
The relative viability was 0.884.

What about the relative viability (NCI-H2023; first compound 0.2 µM) of the same molecule?
The relative viability was 0.235.

And the relative viability (NCI-H2023; first compound 0.6325 µM)?
The relative viability was 0.337.

What about the relative viability (NCI-H2023; first compound 2 µM) of the same molecule?
Its relative viability is 0.219.

And the relative viability (NCI-H2023; first compound 6.325 µM)?
Its relative viability is 0.098.

What about the relative viability (NCI-H2023; first compound 20 µM) of the same molecule?
Its relative viability is 0.0763.

And the relative viability (NCI-H2342; first compound 0.2 µM)?
Its relative viability is 0.719.

And the relative viability (NCI-H2342; first compound 0.6325 µM)?
The relative viability was 0.768.

And the relative viability (NCI-H2342; first compound 2 µM)?
Its relative viability is 0.75.

What about the relative viability (NCI-H2342; first compound 6.325 µM) of the same molecule?
The relative viability was 0.751.

And the relative viability (NCI-H2342; first compound 20 µM)?
Its relative viability is 0.757.

And the relative viability (NCI-H2347; first compound 0.2 µM)?
The relative viability was 0.465.

And the relative viability (NCI-H2347; first compound 0.6325 µM)?
Its relative viability is 0.422.

What about the relative viability (NCI-H2347; first compound 2 µM) of the same molecule?
The relative viability was 0.415.

And the relative viability (NCI-H2347; first compound 6.325 µM)?
The relative viability was 0.421.

And the relative viability (NCI-H2347; first compound 20 µM)?
Its relative viability is 0.399.

What about the relative viability (NCI-H23; first compound 0.2 µM) of the same molecule?
Its relative viability is 0.667.

And the relative viability (NCI-H23; first compound 0.6325 µM)?
Its relative viability is 0.469.

What about the relative viability (NCI-H23; first compound 2 µM) of the same molecule?
The relative viability was 0.717.

What about the relative viability (NCI-H23; first compound 6.325 µM) of the same molecule?
Its relative viability is 0.5.

And the relative viability (NCI-H23; first compound 20 µM)?
Its relative viability is 0.204.

And the relative viability (NCI-H358; first compound 0.2 µM)?
The relative viability was 0.181.

And the relative viability (NCI-H358; first compound 0.6325 µM)?
Its relative viability is 0.17.

And the relative viability (NCI-H358; first compound 2 µM)?
Its relative viability is 0.182.

And the relative viability (NCI-H358; first compound 6.325 µM)?
Its relative viability is 0.152.

What about the relative viability (NCI-H358; first compound 20 µM) of the same molecule?
The relative viability was 0.144.

And the relative viability (NCI-H650; first compound 0.2 µM)?
Its relative viability is 1.07.

And the relative viability (NCI-H650; first compound 0.6325 µM)?
Its relative viability is 1.

What about the relative viability (NCI-H650; first compound 2 µM) of the same molecule?
Its relative viability is 0.934.

And the relative viability (NCI-H650; first compound 6.325 µM)?
The relative viability was 0.89.

And the relative viability (NCI-H650; first compound 20 µM)?
Its relative viability is 0.282.

What about the relative viability (PC-14; first compound 0.2 µM) of the same molecule?
The relative viability was 0.137.

What about the relative viability (PC-14; first compound 0.6325 µM) of the same molecule?
The relative viability was 0.124.

What about the relative viability (PC-14; first compound 2 µM) of the same molecule?
The relative viability was 0.151.

What about the relative viability (PC-14; first compound 6.325 µM) of the same molecule?
Its relative viability is 0.156.

What about the relative viability (PC-14; first compound 20 µM) of the same molecule?
The relative viability was 0.111.

And the relative viability (SK-MES-1; first compound 0.2 µM)?
Its relative viability is 0.962.

What about the relative viability (SK-MES-1; first compound 0.6325 µM) of the same molecule?
The relative viability was 0.907.

And the relative viability (SK-MES-1; first compound 2 µM)?
Its relative viability is 0.796.

And the relative viability (SK-MES-1; first compound 6.325 µM)?
Its relative viability is 0.56.

What about the relative viability (SK-MES-1; first compound 20 µM) of the same molecule?
The relative viability was 0.298.
